Article PMC13128454, “Mutant p53 protein accumulation is selectively targetable by proximity-inducing drugs” (Nature Chemical Biology, 2025)
Several values for one entry are separate records, joined by “and”; a condition that tells them apart may be missing. Equal values may be shown once. Read-outs that look alike come from different tables or passages of the source. Blank lines part the entries; values can stand above or below the molecule they belong to.

Tests used:
[1] = system: cancer cell lines across DepMap; design: method as in DepMap; details: antiproliferative; GDSC1; ref DepMap; read-out: median IC50 across DepMap; cited from earlier work
[2] = target: T1, p53-Y220C–PLK1 ternary complex (Homo sapiens, UniProt P04637+P53350, M133L/N239Y/N268D/V203A/Y220C); assay: NanoBiT ternary complex assay in cotransfected 293T cells; format: cell-based; details: for NLuc Signal, Average: 0 nM: 323
T1 construct: NLS–LgBiT–p53-Y220C (DBD) and mEGFP–PLK1–SmBiT; expressed in transfected cells; host or cells: 293T cells, transient cotransfection
Text: After 1 day, the cells were passaged into 384-well plates and treated with varying concentrations of compound.

[3] = system: PLK1 targets (cyclin B1, phospho-PLK-binding motif) in Halo–p53-Y220C ΔTAD–mCherry 293T cells; assay: western blot for PLK1 targets; format: cell-based; details: 8.5 h, double thymidine block
Protocol: (§1) Cells were split into a 10-cm dish at low confluency (20%) and grown overnight. Cells were synchronized with double thymidine block. Cells were treated with thymidine (2 mM) overnight and released into fresh medium for 8.5 h and then retreated with thymidine (2 mM) overnight. Cells were split into a six-well plate and released into medium containing compound for 8.5 h. Cells were pelleted and protein lysates were created using RIPA buffer containing Halt phosphatase and protease inhibitor (Thermo Fisher, 78440). Lysates were clarified by centrifugation (21,000g for 15 min) and the supernatant was denatured in 1× Lamelli buffer containing DTT by heating at 95 °C for 5 min. The resulting protein was loaded onto a Tris–acetate gel, transferred onto a PVDF membrane and treated with primary antibodies: cyclin B1 (D5C10, Cell Signaling Technologies, 12231T; 1:1,000) and phospho-PLK-binding motif (D73F6, Cell Signaling Technologies, 5243T; 1:1,000). The membrane was stained with IRDye 800CW goat anti-rabbit IgG secondary antibody (Licor Biosciences; 1:20,000) and imaged on an Odyssey DLx.

[4] = system: PLK1 targets (cyclin B1, phospho-PLK-binding motif) in parental 293T cells; assay: western blot for PLK1 targets; format: cell-based; details: 8.5 h, double thymidine block
Protocol: as §1

[5] = system: p53 transcriptional targets in Huh7 cells (TP53^Y220C/Y220C); assay: Huh7 RNA-seq and GSEA; format: cell-based; details: 4 μM, 24 h, versus DMSO
Protocol: Huh7 cells were passaged into six-well plates and treated with PMV6 (4 μM), p53-01 (4 μM) or DMSO for 24 h. Cells were washed once with cold PBS. Subsequently, TRIzol (Invitrogen) was added to cells and, following the manufacturer’s protocol, RNA was extracted. RNA concentration was monitored using a Qubit fluorometer (Thermo Fisher) and RNA integrity was analyzed using an Agilent Bioanalyzer. The NEBNext Ultra II RNA library prep kit (Illumina) was used to prepare an RNA-seq library. A NovaSeq 6000 machine (Illumina) was used for paired-end 150-bp RNA-seq. STAR/RSEM[68],[71] was used to align RNA-seq reads to the GENCODE v38 transcript ref.[72] and generate a count matrix. Raw counts were rounded and DESeq2 was used for downstream analysis. A preranked GSEA[74] was performed using the DESeq2 t statistic (versus DMSO-treated cells) as a rank metric using the Fischer p53 targets geneset.

[6] = CellTiter-Glo cell viability; format: cell-based; design: p5301_AUC_to_10uM / AUC_rezatapopt: scale not given here; viability, replicates (sheet 4G): unit not given here; details: human, MFE319 cells, No PMV6, read-out: viability, replicates (sheet 4G)
Protocol: (§2) Cells were plated in 384-well plates (typically 1,500 cells per well) with varying concentrations of compounds, with a total volume of 50 μl per well. CTG reagent was added (25 μl) to the solutions, mixed and read out using an EnVision 2105 multimode plate reader.

MFE319 cells = assay: CellTiter-Glo cell viability; format: cell-based; design: p5301_AUC_to_10uM / AUC_rezatapopt: scale not given here; viability, replicates (sheet 4G): unit not given here; details: for mean_norm (normalized viability): 4 day; for viability, replicates (sheet 4G): No PMV6
Protocol: as §2

[7] = Concentration 2.44141 nM, 1 day
[8] = Concentration 4.88281 nM, 1 day
[9] = Concentration 9.76562 nM, 1 day
[10] = Concentration 19.5312 nM, 1 day
[11] = Concentration 39.0625 nM, 1 day
[12] = p53-01 Concentration (µM) 0.0390625
[13] = p53-01 Concentration (µM) 0.078125
[14] = p53-01 Concentration (µM) 0.625

SMILES: CC[C@@H]1C(=O)N(C)c2cnc(Nc3ccc(C(=O)NC4CCN(C)CC4)cc3OC)nc2N1C1CCCC1 [BI2536]
IC50 [1]: 11.8 nM

EC50 ([2]; 24 h, n = 4, read-out: NanoBiT EC50): 2120 nM
EC50 ([2]; 1 day, n = 6, Fig. 3b, read-out: EC50 NanoBiT ternary complex formation): 1400 nM
NLuc Signal (replicate) ([2]; Concentration 1.2207 nM, 1 day): 300 and 316 and 296 and 324 and 308
NLuc Signal, Average ([2]; Concentration 1.2207 nM, 1 day): 310
NLuc Signal, Average [2, 7]: 339.333
NLuc Signal (replicate) [2, 8]: 316 and 344 and 284 and 312 and 332
NLuc Signal, Average [2, 8]: 317.333
NLuc Signal, Average [2, 9]: 323.333
NLuc Signal, Average [2, 10]: 322.667
NLuc Signal, Average [2, 11]: 358
NLuc Signal (replicate) ([2]; Concentration 78.125 nM, 1 day): 312 and 292 and 400 and 392 and 356
NLuc Signal, Average ([2]; Concentration 78.125 nM, 1 day): 351.333
NLuc Signal, Average ([2]; Concentration 156.25 nM, 1 day): 353.333
NLuc Signal (replicate) ([2]; Concentration 312.5 nM, 1 day): 428 and 364 and 392 and 404 and 488
NLuc Signal, Average ([2]; Concentration 312.5 nM, 1 day): 413.333
NLuc Signal, Average ([2]; Concentration 625 nM, 1 day): 446
NLuc Signal (replicate) ([2]; Concentration 1250 nM, 1 day): 704 and 792 and 644 and 588
NLuc Signal, Average ([2]; Concentration 1250 nM, 1 day): 660
NLuc Signal (replicate) ([2]; Concentration 2500 nM, 1 day): 988 and 1108 and 1092 and 1436 and 1288
NLuc Signal, Average ([2]; Concentration 2500 nM, 1 day): 1167.33
NLuc Signal, Average ([2]; Concentration 5000 nM, 1 day): 1222.67
NLuc Signal, Average ([2]; Concentration 10000 nM, 1 day): 1201.33
NanoBiT mean_norm ([2]; Concentration 19.5312): 1.047
NanoBiT mean_norm ([2]; Concentration 39.0625): 1.0545
NanoBiT mean_norm ([2]; Concentration 78.125): 1.0649
NanoBiT mean_norm ([2]; Concentration 156.25): 1.0584
NanoBiT mean_norm ([2]; Concentration 312.5): 1.026
NanoBiT mean_norm ([2]; Concentration 625): 1.182
NanoBiT mean_norm ([2]; Concentration 1250): 1.238
NanoBiT mean_norm ([2]; Concentration 2500): 1.362
NanoBiT mean_norm ([2]; Concentration 5000): 1.592
NanoBiT mean_norm ([2]; Concentration 10000): 1.5997
ternary complex formation between p53-Y220C and PLK1 ([2]; NanoBiT, 1 day): induce ternary complex formation
Max_effect ([2]; sheet 5C): 1.5997
EC50 ([2]; sheet 5C, read-out: EC50): 2120 nM
SMILES: CC[C@@H]1C(=O)N(C)c2cnc(Nc3ccc(C(=O)NCCOCCOCCOCCOCCC(=O)N4CCC(Nc5cccc6c5cc(C#CCNc5ccc(S(C)(=O)=O)cc5OC)n6CC(F)(F)F)CC4)cc3OC)nc2N1C1CCCC1 [p53-01, PMV6-PEG4-BI2536]
NLuc Signal (replicate) [2, 7]: 356 and 348 and 308 and 360 and 340 and 324
NLuc Signal (replicate) [2, 9]: 328 and 336 and 296 and 308 and 312 and 360
NLuc Signal (replicate) [2, 10]: 352 and 360 and 304 and 296 and 324 and 300
NLuc Signal (replicate) [2, 11]: 404 and 356 and 324 and 368 and 332 and 364
NLuc Signal (replicate) ([2]; Concentration 156.25 nM, 1 day): 380 and 352 and 372 and 324 and 360 and 332
NLuc Signal (replicate) ([2]; Concentration 625 nM, 1 day): 484 and 444 and 472 and 448 and 420 and 408
NLuc Signal (replicate) ([2]; Concentration 5000 nM, 1 day): 1240 and 1080 and 1140 and 1304 and 1104 and 1468
NLuc Signal (replicate) ([2]; Concentration 10000 nM, 1 day): 1052 and 1356 and 1056 and 1192 and 1180 and 1372
PLK1 substrates by western blot [3]: phenocopied BI2536
PLK1 substrates by western blot [4]: not in parental cells
normalized enrichment score (NES), Fischer p53 targets [5]: 1.33
viability at 0.0390625 µM [6, 12]: 94%
viability at 0.078125 µM [6, 13]: 99.7%
viability at 0.625 µM [6, 14]: 85.4%
viability at 1.25 µM ([6]; p53-01 Concentration (µM) 1.25): 61.2%
viability at 2.5 µM ([6]; p53-01 Concentration (µM) 2.5): 41.5%
viability at 5 µM ([6]; p53-01 Concentration (µM) 5): 30%
viability at 10 µM ([6]; p53-01 Concentration (µM) 10): 22.2%
IC50 (MFE319 cells; 96 h, MFE319, 4 day treatment): 1270 nM
p5301_AUC_to_10uM (MFE319 cells; MFE319): 0.3547
mean_norm (normalized viability) (MFE319 cells; MFE319, Concentration 39.0625): 0.968
mean_norm (normalized viability) (MFE319 cells; MFE319, Concentration 78.125): 0.9234
mean_norm (normalized viability) (MFE319 cells; MFE319, Concentration 156.25): 0.9253
mean_norm (normalized viability) (MFE319 cells; MFE319, Concentration 312.5): 0.9948
mean_norm (normalized viability) (MFE319 cells; MFE319, Concentration 625): 0.9099
mean_norm (normalized viability) (MFE319 cells; MFE319, Concentration 1250): 0.6095
mean_norm (normalized viability) (MFE319 cells; MFE319, Concentration 2500): 0.3193
mean_norm (normalized viability) (MFE319 cells; MFE319, Concentration 5000): 0.2865
mean_norm (normalized viability) (MFE319 cells; MFE319, Concentration 10000): 0.2268
relative viability, replicates (sheet 4E) (MFE319 cells; log Concentration (nM) 0.68867): 1.049 and 0.9314 and 0.9072 and 0.917
relative viability, replicates (sheet 4E) (MFE319 cells; log Concentration (nM) 0.9897): 0.9806 and 0.996 and 0.993 and 0.8521
relative viability, replicates (sheet 4E) (MFE319 cells; log Concentration (nM) 1.29073): 0.9742 and 1.022 and 0.9775 and 0.9343
relative viability, replicates (sheet 4E) (MFE319 cells; log Concentration (nM) 1.59176): 1.009 and 1.026 and 0.9509 and 0.8871
relative viability, replicates (sheet 4E) (MFE319 cells; log Concentration (nM) 1.89279): 0.9459 and 0.9044 and 0.9452 and 0.8983
relative viability, replicates (sheet 4E) (MFE319 cells; log Concentration (nM) 2.19382): 0.8852 and 0.9848 and 0.9106 and 0.9206
relative viability, replicates (sheet 4E) (MFE319 cells; log Concentration (nM) 2.49485): 1.036 and 1.016 and 1.021 and 0.9075
relative viability, replicates (sheet 4E) (MFE319 cells; log Concentration (nM) 2.79588): 0.9347 and 0.9684 and 0.8932 and 0.8433
relative viability, replicates (sheet 4E) (MFE319 cells; log Concentration (nM) 3.09691): 0.6355 and 0.6443 and 0.6092 and 0.549
relative viability, replicates (sheet 4E) (MFE319 cells; log Concentration (nM) 3.39794): 0.3339 and 0.3826 and 0.2998 and 0.2608
relative viability, replicates (sheet 4E) (MFE319 cells; log Concentration (nM) 3.69897): 0.3202 and 0.3151 and 0.2607 and 0.2498
viability, replicates (sheet 4G) (MFE319 cells; [12]): 87.9896 and 96.6442 and 88.8312
viability, replicates (sheet 4G) (MFE319 cells; [13]): 105.101 and 108.114 and 111.169
viability, replicates (sheet 4G) (MFE319 cells; p53-01 Concentration (µM) 0.15625): 94.6597 and 96.7065 and 100.094 and 89.7143
viability, replicates (sheet 4G) (MFE319 cells; p53-01 Concentration (µM) 0.3125): 90.6182 and 88.5922 and 96.6649 and 91.0338
viability, replicates (sheet 4G) (MFE319 cells; [14]): 77.5481 and 91.8338 and 80.5818
viability, replicates (sheet 4G) (MFE319 cells; p53-01 Concentration (µM) 1.25): 68.0623 and 80.2078 and 68.1143
viability, replicates (sheet 4G) (MFE319 cells; p53-01 Concentration (µM) 2.5): 46.5039 and 41.4649 and 46.0156
viability, replicates (sheet 4G) (MFE319 cells; p53-01 Concentration (µM) 5): 29.174 and 32.0623 and 26.6805
viability, replicates (sheet 4G) (MFE319 cells; p53-01 Concentration (µM) 10): 23.1584 and 24.4468 and 23.2416
rescue of viability decline by PMV6 (MFE319 cells; p53-01 with PMV6 2.5 μM, CTG 4 days): partially compete the decline in cell viability
